Results on three compounds are retold here after patent US20020183937A1, “Method for the generation of proteins with new enzymatic function” (priority 2001, published 2002).

In series [1] the target is T1, PZD2 (Escherichia coli, UniProt P0AA25, D27I/F13A/L18H/Y71A).
T1 construct: made in house; host or cells: E. coli BL21 (DE3), vector pET-11a
Briefly: Inhibition of PZD2 catalyzed PNPA hydrolysis. The class given is biochemical, E. coli. The text has this: With this in mind, we assayed the inhibitory effects of p-nitrophenol glycerol (PNPG), a highly soluble compound with structural similarity to PNPA.

A short description of series [2]: Steady state kinetics of PNPA hydrolysis by protozymes. The settings on record: qualitative statement. The class given is biochemical.
Series [3] in a line: Burst phase PNPA hydrolysis assay at high substrate concentration. The settings on record: 1.6 mM PNPA, 4 μM protein (FIG. 7).
Procedure: PZD2 was dialyzed extensively against 10 mM sodium phosphate buffer at pH 6.95. Kinetic experiments at 22° C. were started by the addition of substrate dissolved in acetonitrile to buffer solution with and without PZD2 (final protein concentration of 4 μM). Protein concentration was determined by UV absorbance in 6M guanidinium hydrochloride assuming an extinction coefficient of 12400 M^−1cm^−1 at 280 nm. Product concentration was determined by the change in absorbance at 400.5 nm assuming an extinction coefficient for deprotonated PNP of 19700 M^31 1cm^−1. Final acetronitrile concentration was 1% for all experiments. The steady state rate of hydrolysis by PZD2 was corrected for the buffer rate. Burst phase hydrolysis assays were performed at a substrate concentration of 1.6 mM. Protein concentration was 4 μM, with the exception of wild type thioredoxin. Wild type thioredoxin was assayed at 50 μM to improve signal to noise and extrapolated to a protein concentration of 4 μM. The dead time for this experiment was approximately 30 seconds.

T1 sequence (P0AA25 2-109 F13A/L18H/D27I/Y71A): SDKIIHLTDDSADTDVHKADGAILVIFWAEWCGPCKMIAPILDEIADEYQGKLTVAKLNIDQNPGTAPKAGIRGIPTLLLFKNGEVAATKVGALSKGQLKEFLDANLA

As to `O=[N+]([O-])c1ccc(OP(=O)(O)O)cc1` [p-nitrophenyl phosphate], the inhibition result in series [1] (concentrations up to 20 mM) is recorded as “did not show detectable inhibition”.

As to “Wild type thioredoxin: thioredoxin protein from E. coli, scaffold; wild type sequence, H at position 6 with no binding site mutations”, the “enzyme-like activity toward PNPA hydrolysis” value in series [2] is given as “essentially catalytically inert”; in series [2] (listed as wild type protein), “does not exhibit enzyme-like activity”. Further, the “catalytic activity (PNPA hydrolysis)” value in series [3] is “essentially inactive”.

p-nitrophenol glycerol [PNPG]: the Ki in series [1] (fixed substrate concentration, read-out: K1 (Dixon analysis of inhibition)) worked out at 20 mM. For the same compound, the “mode of inhibition (double reciprocal analysis)” value in series [1] (presence and absence of inhibitor, 10 mM PNPG (FIG. 9)) was “competitive inhibition”.
